Data: patent US11999964B2, “Synthetic mammalian signaling circuits for robust cell population control” (California Institute of Technology, priority 2020, dated 2024)

Tests used:
Format in all cases: cell-based, Hamster
[1] = biological target: T1, mCherry-AID-Blast R (UniProt P93830+Q7XVM8, DEL133-229); assay: Conditioned media from Sender-Receivers applied to Receivers; settings: 2 days conditioning, diluted into an equal volume of fresh media
T1 construct: expressed in transfected cells; 'Receiver' line
T1 sequence (P93830 65-132 limits assumed, stated change not applied): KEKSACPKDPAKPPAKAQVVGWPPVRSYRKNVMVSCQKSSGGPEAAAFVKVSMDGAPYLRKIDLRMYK
T1 sequence (Q7XVM8 whole entry, stated change not applied): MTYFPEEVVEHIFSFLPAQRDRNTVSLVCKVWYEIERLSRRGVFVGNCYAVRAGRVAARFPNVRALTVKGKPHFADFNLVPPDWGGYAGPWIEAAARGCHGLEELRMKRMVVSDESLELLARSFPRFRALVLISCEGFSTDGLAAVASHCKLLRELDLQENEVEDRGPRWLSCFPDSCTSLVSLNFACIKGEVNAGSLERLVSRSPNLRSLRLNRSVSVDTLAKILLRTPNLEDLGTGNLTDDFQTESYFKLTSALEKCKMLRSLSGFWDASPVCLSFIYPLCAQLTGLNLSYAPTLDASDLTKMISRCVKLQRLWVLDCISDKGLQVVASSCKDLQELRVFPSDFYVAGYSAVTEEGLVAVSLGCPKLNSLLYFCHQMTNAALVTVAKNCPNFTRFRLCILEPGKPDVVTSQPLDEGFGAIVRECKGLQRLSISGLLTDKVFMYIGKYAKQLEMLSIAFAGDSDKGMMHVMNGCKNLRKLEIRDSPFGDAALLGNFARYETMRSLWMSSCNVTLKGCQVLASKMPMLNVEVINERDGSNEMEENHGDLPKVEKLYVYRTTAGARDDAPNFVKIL
T1 sequence (Q9WTX5 whole entry partner): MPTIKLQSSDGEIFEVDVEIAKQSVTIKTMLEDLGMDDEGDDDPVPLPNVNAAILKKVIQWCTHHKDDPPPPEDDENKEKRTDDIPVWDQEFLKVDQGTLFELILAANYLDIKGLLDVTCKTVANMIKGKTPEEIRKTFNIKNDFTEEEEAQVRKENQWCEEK
Procedure: FIGS. 2A-2E depict non-limiting exemplary embodiments and data showing Sender-Receiver cells produce and respond to auxin. […] (FIG. 2B) Stable expression of iaaH in Receiver cells allows them to produce auxin from precursors (blue square). (FIG. 2C) Conditioned media experiment (schematic). Fresh culture media with or without precursors was added to plated sender cells, collected, mixed at 1:1 ratio with standard fresh media, and then applied to receiver cells. (FIG. 2D) iaaH can produce IAA and NAA auxins from IAM and NAM precursors, respectively. Standard media, with or without precursors, was conditioned by Sender-Receivers or standard CHO-K1 cells for 48 hours and applied to Receiver cells for another two days. Receivers cultured with fresh media with or without auxins were also assayed as controls. Data are normalized to Receiver cell fluorescence treated with media conditioned by CHO-K1 cells. Error bars represent standard deviation of 3 replicates. (FIG. 2E) Auxin senders can generate an auxin gradient. Sender-Receivers (green) were seeded within a 7 mm×7 mm square at the edge of a 60 mm dish, and Receivers were plated everywhere else (no fluorescence or red). One day after plating, the media was replaced with fresh media containing low-melting-point agarose, with or without IAM (Methods). Plates were imaged after two additional days of culture. […]

[2] = test system: Sender-Receiver cells; assay: Quorum sensing of Sender-Receiver cells (reporter fluorescence versus population density); settings: Sender-Receiver cells without PIN2, two days
Procedure: FIGS. 3A-3D depict non-limiting exemplary embodiments and data showing Sender-Receiver cells sense their population density and regulate survival accordingly. (FIGS. 3A-3B) Sender-Receiver and Sender-Receiver-PIN2 cells perform quorum sensing. For both plots, cells were seeded at different densities and induction conditions, with either of the two auxins (saturating signaling) or their precursors (to allow quorum sensing). mCherry fluorescence was assayed after two days as a reporter of auxin sensing. Inset: Cells in B express the transporter PIN2, which actively exports auxin. Data were fitted onto an inverted Michaelis-Menten's function on log scale (see FIG. 7B for fitted parameters). (FIG. 3C) Sender-Receiver-PIN2 cells sense population size per unit volume. Cells were grown for two days at 6 different densities for each media volume, and cultured on a rocker for better mixing. (FIG. 3D) Sender-Receiver-PIN2 triggers cell death at high population density. […]
It was next asked whether Sender-Receiver cells could sense their own population density by producing auxin at a rate proportional to population size and sensing auxin concentration in the local environment (quorum sensing, FIG. 1A, middle panel). The dependence of reporter expression on cell population density in the presence of concentrations of each precursor sufficient to generate saturating levels of auxin was analyzed. […]

[3] = test system: Paradaux cells; assay: Paradaux cell survival versus auxin with AP1903 and/or blasticidin, and model parameter fitting
From the text: FIGS. 4A-4G depict non-limiting exemplary embodiments and data showing paradoxical architecture reduces susceptibility to cheater mutations. (FIG. 4A) In the paradoxical architecture, the same signal inhibits growth (red pathway) and death (green pathway). This can produce a window of auxin concentrations leading to positive net growth (light blue region). Without mutation, the paradoxical and negative feedback circuits operate similarly around a stable equilibrium point of large population size (solid dots in the left panels). Mutations that eliminate sensing make both death and growth independent of auxin concentration (right panels), which selects against mutations in the paradoxical circuit due to negative net growth (FIG. 4B) In the paradoxical circuit implementation, auxin regulates growth through Blast^R (upper path), and also regulates apoptosis via iCasp9 (lower path), each with distinct fluorescent protein readouts and a small molecule (blasticidin and AP1903) as a control switch. (FIG. 4C) The full paradoxical circuit can be encoded as a single open reading frame, with distinct proteins separated by T2A peptides (grey squares). (FIG. 4D) Paradaux cells respond to auxin in a biphasic manner. Cells were seeded at about 1/8 confluence (grey dashed line) and pretreated with NAA for one day, then treated with combinations of NAA, blasticidin (20 μg/ml) and AP1903 (50 nM) for another 3 days, and imaged. Pink, green, and blue dots show the mean and standard deviation of three replicates in the presence of AP1903, blasticidin, or both, respectively. […] Blue dashed lines indicate predictions for the fully operational circuit based on the green and red curves. Dotted blue line is the model prediction when the synergy term is included. (FIG. 4E) Different classes of behavior can occur in different parameter regimes. Using the model auxin-dependent growth was simulated in different parameter regimes and identified five distinct regimes (indicated schematically as insets). Using this classification, growth curves were numerically analyzed and sorted for each concentration of blasticidin and AP1903 (central plot). The blue dot indicates the blasticidin and AP1903 concentrations used in the time-lapse movie analysis. The grey region indicates curves that could not be classified into one of these categories (0.68% of total, see FIG. 9F and Supplementary text). (FIG. 4F). For each expression level, the percent of blasticidin-AP1903 concentrations that generate paradoxical behavior was analyzed, similar to FIG. 4E. Optimizing the expression and ratio of Blast R and iCasp9 can widen the paradoxical regime. (FIG. 4G) Dynamic simulations show the Paradoxical Control circuit provides evolutionary robustness. For the negative feedback system, tic and βC and βsyn are set to zero. Mutated strains were simulated with auxin (A) fixed to zero, representing sensing deficient mutations. On day 25, 50, 75 and 100, mutant cells (1% of the population cap) were introduced into the simulated system to test robustness to mutations. These mutants take over in the negative feedback circuit (top) but not the paradoxical circuit (bottom). Dashed line indicates carrying capacity.
To encode the Paradaux circuit, a single multi-protein construct expressing osTIR1, the auxin-regulated iCasp9 system, and the auxin-regulated Blast R construct described above was designed (FIG. 4C). To eliminate one potential mechanism for evolutionary escape, Blast^R was positioned at the C-terminal end of the construct, so that premature stop codon mutations would deactivate Blast®, decreasing survival. The construct was integrated to create stable monoclonal CHO-K1 cell lines for further analysis. […]

[4] = biological target: T1, mCherry-AID-Blast R; assay: Auxin regulation of mCherry-AID-BlastR fluorescence in Receiver cells; settings: Receiver CHO-K1 cells, two days of treatment, Michaelis-Menten fit; read-out: EC50, reduction of mCherry fluorescence
From the text: (§1) FIGS. 1A-1D depict non-limiting exemplary embodiments and data showing the plant hormone auxin allows private-channel mammalian cell-cell communication. […] Middle: Engineered cells that can send and receive the signal simultaneously can respond to their own population size. Right: coupling the sending-receiving function with cell survival in a negative feedback can enable population control. (FIG. 1B) Auxin Receiver cells constitutively express a fluorescent target fusion protein, mCherry-AID-BlastR, as well as the F-box protein osTIR1. […] The response of mCherry fluorescence to two different species of auxin (IAA and NAA) was measured after two days of treatment (dots). […] Cells were counted by flow cytometry (n=3, error bar=standard deviation). […]
To establish and characterize auxin regulation of mammalian cell growth, auxin sensing was coupled to drug resistance and fluorescence. Specifically, blasticidin S deaminase (Blast R), whose protein product is necessary for survival in the presence of blasticidin, was fused to AID and mCherry domains, allowing auxin-dependent degradation and fluorescent readout of protein concentration, respectively. […]
To fit the mCherry's response curve to auxin and population (FIG. 1C, FIGS. 3A and 3B; FIGS. 7A and 7B), it was assumed the log of fluorescence (F) follows an inverted Michaelis-Menten's equation as follow: […]

[5] = test system: Receiver cell line (CHO-K1 cells); assay: Receiver cell survival with IAA and blasticidin; settings: IAA added to media containing blasticidin; four days; dose-dependent
From the text: as §1
Flow cytometry by trypsinizing 0.25% trypsin-EDTA (GIBCO) for 1 min at room temperature. […] Cells were then filtered through a 40 μm cell strainer and analyzed by flow cytometry (MACSQuant VYB, Miltenyi or CytoFLEX, Beckman Coulter). […] All fluorescence data were acquired as the median value of the gated population. For counting cells, 1000 CountBright beads (Life Technologies) were spiked into the sample before filtering, gated out by their fluorescence in analysis and used to estimate cell number in each sample.

[6] = test system: parental cells; assay: Parental cells cultured with IAA and blasticidin (pilot); settings: cultured in the presence of IAA and blasticidin
Procedure: FIGS. 14A-14D depict non-limiting exemplary data showing simple negative feedback enables cell density-dependent killing. (FIGS. 14A-14B) Long-term culture traces under 50 μg/ml and 100 μg/ml blasticidin conditions. Experimental setups are the same as FIG. 11B. […] A cell line collected from the experiment described in (FIG. 14D) was cultured, in parallel with the parental line, with different IAA and blasticidin combinations for 4 days. Survival rates were normalized to the parental line, and each bar is from a triplet. […] Cells were seeded into a 24-well imaging plate with 50 μg/ml of blasticidin solely or with 100 μM IAA or IAM, and no cells survived the combined IAA and blasticidin treatment. Each trace reflects an average of 12 positions in a sample well.
First, resistance mutations occurred in separately maintained, long-term cultures, and therefore could not spread from one culture to another. […] While sensing mutations are likely responsible at least in part for the mutant growth advantage, their specific effects in a parental background was not characterized. […] However, as described herein, a paradoxical circuit designs provide robust population control.

[7] = test system: Sender-Receiver-PIN2; assay: Density-dependent survival of Sender-Receiver-PIN2 cells in blasticidin; settings: media with blasticidin, 4 days
Procedure: FIGS. 3A-3D depict non-limiting exemplary embodiments and data showing Sender-Receiver cells sense their population density and regulate survival accordingly. (FIGS. 3A-3B) Sender-Receiver and Sender-Receiver-PIN2 cells perform quorum sensing. For both plots, cells were seeded at different densities and induction conditions, with either of the two auxins (saturating signaling) or their precursors (to allow quorum sensing). mCherry fluorescence was assayed after two days as a reporter of auxin sensing. Inset: Cells in B express the transporter PIN2, which actively exports auxin. Data were fitted onto an inverted Michaelis-Menten's function on log scale (see FIG. 7B for fitted parameters). (FIG. 3C) Sender-Receiver-PIN2 cells sense population size per unit volume. Cells were grown for two days at 6 different densities for each media volume, and cultured on a rocker for better mixing. (FIG. 3D) Sender-Receiver-PIN2 triggers cell death at high population density. Cells were seeded at different confluence levels, grown for four days in media with 50 μg/ml blasticidin and IAM, IAA, or no auxin (Error bars are standard deviation, n=3)).
Linking quorum sensing to cell survival could enable cell population control (FIG. 1A, right). […]

[8] = fitted value, major Paradaux line (1)
[9] = fitted value, second Paradaux line (2)

Q: What does the source list for `NC(=O)Cc1cccc2ccccc12` [NAM, 1-naphthaleneacetamide]?
A: Reduction of mCherry-AID-BlastR in Receivers by media conditioned by Sender-Receivers with precursor [1]: diminished response compared to NAA; Reporter fluorescence versus population density with precursor [2]: decreased in response to increasing population density

Q: What does the source list for `CN(CC[C@H](N)CC(=O)N[C@H]1C=C[C@H](n2ccc(N)nc2=O)O[C@@H]1C(=O)O)C(=N)N` [blasticidin]?
A: n1, cooperativity of the blasticidin regulation [3, 8]: 2.26(1); DL; βB, maximum net growth reduction by blasticidin [3, 8]: 0.0874(1); hr^−1; κB, effective strength of blasticidin [3, 8]: 0.045(1); (μg/ml)^−1; n1, cooperativity of the blasticidin regulation [3, 9]: 2.28(2) DL; βB, maximum net growth reduction by blasticidin [3, 9]: 0.147(2) hr^−1; κB, effective strength of blasticidin [3, 9]: 0.069(2) (μg/ml)^−1

Q: For auxin, which “Survival of Paradaux cells as a function of auxin” value (from here on “Survival of Paradaux cells”) ([3]; both blasticidin and AP1903) is on record?
A: Its value is “biphasic survival curve”.

Q: And the “κA, effective strength of auxin” value ([3]; fitted value)?
A: The value was 1.316 µM⁻¹.

Q: And the “Survival of Paradaux cells” value ([3]; in the presence of AP1903)?
A: The value was “increased monotonically”.

Q: What about the “Survival of Paradaux cells” value ([3]; in the presence of blasticidin) of the same compound?
A: The value was “decreased”.

Q: Which EC50 [4] does the source give for `O=C(O)Cc1cccc2ccccc12` [NAA, 1-napthalenatic acid] here?
A: Its EC50 is 760 nM.

Q: Which results are given for `O=C(O)Cc1c[nH]c2ccccc12` [IAA, indole-3-acetic acid]?
A: EC50 [4]: 110 nM; Effect on cell survival [5]: inhibit cell survival; Time to death of parental cells [6]: ≤ 3 days

Q: Which results are given for `NC(=O)Cc1c[nH]c2ccccc12` [IAM, indole-3-acetamide]?
A: Reduction of mCherry-AID-BlastR in Receivers by media conditioned by Sender-Receivers with precursor [1]: comparable to those generated by saturating concentrations of IAA; Reporter fluorescence versus population density with precursor [2]: strong, but density-independent, decrease in fluorescence; Cell numbers at high seeding density versus no IAM or IAA [7]: reduced cell numbers
